Experimental data: patent publication US11136291B2, “Antifungal compounds and uses thereof” (Dana-Farber Cancer Institute, Inc., priority 2016, dated 2021)
Converted amounts (≈) assume the structure as drawn. “Also recorded” adds a separate entry of the source.

Tests used:
[1] = system: PDRE-dependent luciferase gene transcription; type: cell-based, Saccharomyces cerevisiae; settings: 40 μM ketoconazole
[2] = system: CgCDR1 transcription (CgPdr1 target); assay: Transcription assay, quantitative real-time PCR of CgPdr1 target genes; type: cell-based, Candida glabrata
[3] = system: HepG2 cells; assay: HepG2 cell viability (CellTiter-Glo); type: cell-based, Human; settings: 72 hours
Protocol: HepG2 (ATCC HB-8065) cell viability was assessed using the CellTiter-Glo assay kit (Promega). HepG2 cells (N=4,500) were seeded in each well in 100 μL MEM+10% FBS in 96-well CellBIND (Corning) plates. After 24 hours, iKIX1 was added to final concentrations indicated for a final volume of 150 μL. HepG2 cells were incubated with iKIX1 for another 72 hours before CellTiter-Glo signal was assessed with an Envision 2103 Multilabel plate reader according to the manufacturer's instructions.

[4] = system: SREBP-target genes; assay: Transcription of SREBP-target genes in HepG2 cells; type: cell-based, Human; settings: concentrations up to 100 μM, 24 hours
Protocol: For transcription assays, HepG2 cells were seeded in MEM+10% FBS on 12-well poly-D-lysine-coated plates at a concentration of 175,000 cells per mL. After cells attached (4 hours), media was aspirated and iKIX1 was added in fresh MEM+10% FBS to final concentrations indicated. Cells were treated with iKIX1 for 24 hours before RNA was isolated using Trizol according to manufacturer's instructions. Quantitative real-time RT-PCR was carried out as described above.

[5] = system: C. glabrata PDR1 wild-type or PDR1^L280F strains; assay: Galleria mellonella survival assay; type: in vivo
[6] = system: C. glabrata; assay: Mouse disseminated fungal burden model; type: in vivo; settings: for fungal burden (CFU/g kidney): Cgpdr1 null strain (SFY93)
[7] = system: C. glabrata CgPDR1 wild-type and gain-of-function mutant strains; assay: Spot plating on gradient plates with azole; type: cell-based, Candida glabrata
[8] = system: Gal11/Med15 recruitment to Pdr1-regulated target genes; assay: Chromatin immunoprecipitation (ChIP) assay; type: cell-based, Saccharomyces cerevisiae
Protocol: (§1) ChIP was performed according to standard procedures (see. e.g., McConnell A D, Gelbart M E, Tsukiyama T. Histone fold protein Dls1p is required for Isw2-dependent chromatin remodeling in vivo. Mol Cell Biol. 2004; 24(7):2605-13. PMCID: 371119). Briefly, cells were grown to saturation then washed 2 times with sterilized Milli-Q (Millipore) water, resuspended to an OD600 of 0.8 in YP (1% yeast extract, 2% bacto peptone) and then grown for 6 hours at 30° C. with shaking in the presence of DMSO (vehicle) or iKIX1. Cultures were induced with ketoconazole to a final concentration of 40 μM and harvested at the times indicated. 2 mL of culture was harvested at 0′ and 15′ for matched transcription samples; RNA was prepared as described below. Cells were fixed with 1% formaldehyde (final) for 15 minutes with swirling and then quenched with 125 mM glycine (final) for 5 min. with swirling. Cells were pelleted, washed with TBS+125 mM glycine and then TBS. Cells were lysed in buffer containing 50 mM HEPES, pH 7.5, 140 mM NaCl, 1% Triton X-100, 0.1% sodium deoxycholate, 1 mM EDTA and protease inhibitors and 0.5 mm glass beads. Glass beads were removed by centrifugation before cell lysate was sonicated to obtain 150 to 400 base pair fragments. […]

[9] = system: ScPdr1 target genes (ScPDR5, ScSNQ2); assay: Transcription assay, quantitative real-time PCR of ScPdr1 target genes; type: cell-based, Saccharomyces cerevisiae; settings: ketoconazole induced
Protocol: as §1, with “beads.” for “beads. Glass beads were removed by centrifugation before cell lysate was sonicated to obtain 150 to 400 base pair fragments.”
For harvest and preparation of RNA. cells equivalent to an OD600 of 0.4 were centrifuged at 4,000 rpm for 4 minutes and then resuspended in 700 μL Trizol. […] Quantitative real-time PCR reactions were run and analyzed on a Roche LightCycler 480 system. […]

[10] = system: Candida glabrata DSY565; assay: Broth dilution MIC; settings: Nakaseomyces glabratus
Protocol: (§2) Antifungal susceptibility testing was carried out using broth dilution assays which examined effects of two-fold dilutions of compounds on cellular growth. The minimum inhibitory concentration (MIC) was defined as the drug concentration at which the optical density was equal to or decreased more than 50% from that of the drug-free culture.

[11] = system: Candida albicans SC5314; assay: Broth dilution MIC
Protocol: as §2

[12] = system: Candida albicans DSY2621; assay: Broth dilution MIC
Protocol: as §2

[13] = system: Candida tropicalis DSY472; assay: Broth dilution MIC; settings: ATCC75
Protocol: as §2

[14] = system: Saccharomyces cerevisiae DSY2094; assay: Broth dilution MIC
Protocol: as §2

[15] = system: C. glabrata adherence to CHO-Lec2 cells; assay: Yeast adherence to epithelial CHO-Lec2 cells; settings: PDR1^L280F mutant; 30 μM iKIX1 or 40 μM ketoconazole
[16] = system: S. cerevisiae; assay: Cell growth inhibition screen with 5 μM ketoconazole; settings: in the presence of 5 μM ketoconazole
Protocol: S. cerevisiae SEY6210 wild-type strains were grown in YPD (U % yeast extract, 2% bacto peptone, 2% dextrose) at 30° C. with shaking overnight until saturation. The next day, cultures were inoculated to an OD600 of 0.0007 and grown for 17 hours, to an OD600˜0.5, 384-well plates were set up in duplicate with either YPD alone or with YPD containing a final concentration of 5 μM ketoconazole. 384-well plates contained 5 two-fold dilutions of each compound, corresponding to a final concentration range of 20 μg/mL to 1.25 μg/mL. Wells were inoculated with cells to a final OD600 of 0.00025 in YPD.

N#CCC(=O)NNC(=S)Nc1ccc(Cl)c(Cl)c1 [iKIX1, 2-(2-Cyanoacetyl)-N-(3,4-dichlorophenyl)hydrazinecarbothioamide]
ketoconazole-induced luciferase activity (in words) [1]: able to block this induction in a concentration-dependent manner; also recorded: inhibits ketoconazole (KET)-induced upregulation of luciferase activity in a dose-responsive manner | ketoconazole-induced CgPdr1 target gene (CgCDR1) transcription (in words) ([2]; CgPDR1 wild-type strain (SFY114), pre-treatment then 40 μM ketoconazole): reduced target gene induction in a durable and concentration-dependent manner | Pdr1-target gene induction ([2]; iKIX1 alone, no azole): did not significantly affect Pdr1-target gene induction | azole-induced transcription of CgPdr1 target genes ([2]; isogenic strains with gain-of-function CgPDR1 mutations): reduced azole-induced transcription of CgPdr1 target genes (e.g., CgCDR1) in a concentration-dependent manner in all strains tested | concentrations that inhibit viability of HepG2 cells [3]: > 50 µM | IC50 ([3]; Homo sapiens, HepG2, read-out: IC50, toxicity in HepG2 cells): ~100 µM | effect on transcription of SREBP-target genes [4]: no effect | survival of G. mellonella larvae ([5]; […], fluconazole-iKIX1 combination): no significant alterations in survival | survival of G. mellonella larvae ([5]; […], single agent (fluconazole 50 mg/kg or iKIX1 25 mg/kg) vs vehicle): did not significantly increase survival | survival of G. mellonella larvae ([5]; in vivo): significantly increased survival | reductions in fungal burdens in the kidney and spleen ([6]; CgPDR1^L280F strain, iKIX1 100 mg/kg with 100 mg/kg fluconazole, i.p. once daily, 7 days, P<0.0001): ~10 fold | fungal burden (CFU/g kidney) ([6]; iKIX1 alone, 100 mg/kg/day): significantly reduces fungal burden; also recorded: more sensitive to iKIX1 alone | fungal burden (CFU/g kidney) ([6]; low iKIX1 (10 mg/kg/day) added to fluconazole, 10 mg/kg/day): did not confer additional reductions in CFU/g kidney; also recorded: did not further reduce fungal burden | tissue fungal burden in the kidney and spleen ([6]; […], iKIX1 100 mg/kg co-treatment with 100 mg/kg fluconazole): did not result in further reductions | fungal tissue burdens in the spleen or kidney ([6]; […], iKIX1 combination with fluconazole): reduces fungal tissue burdens in the spleen or kidney | reductions in fungal burdens in both organs (kidney, spleen) ([6]; mouse, in vivo, 25 mg/kg): ~10 fold | azole sensitivity of growth on gradient plates ([7]; CgPDR1 gain-of-function mutant strains, compound gradient with fluconazole or ketoconazole): restored azole-sensitivity to PDR1 gain-of-function mutant strains in a concentration-dependent manner | growth inhibition on gradient plates ([7]; CgPDR1 wild-type strains, iKIX1 with azole vs single agents): increased growth inhibition | constitutive occupancy of Pdr1 at Pdr1-regulated target genes ([8]; 20 μM iKIX1): did not impede the constitutive occupancy of Pdr1 | ketoconazole-induced recruitment of Gal11/Med15 to promoters of PDR5 and SNQ2 ([8]; iKIX1 pre-treatment): ketoconazole-induced recruitment of Gal11/Med15 was abrogated | azole-induced transcription of ScPdr1 target genes [9]: strongly inhibited azole-induced transcription of ScPdr1 target genes | MIC [10]: 12.5 µM (≈ 3.79 µg/mL) | MIC [11]: 12.5 µM (≈ 3.79 µg/mL) | MIC [12]: 12.5 µM (≈ 3.79 µg/mL) | MIC [13]: 6.25 µM (≈ 1.89 µg/mL) | MIC [14]: 12.5 µM (≈ 3.79 µg/mL) | relative adherence to epithelial cells [15]: reduce adherence; also recorded: reduced adherence to levels similar to a PDR1 wild-type strain | cell growth [16]: inhibits cell growth in a concentration-dependent manner
